This data set concerns MI-S. In words: In vitro photosensitizing cytotoxicity (LD50) on cell line MI-S, 700-820 nm light for 30 minutes. The class given is cell-based. The following applies: eosin-Y exclusion or tritium-labeled thymidine uptake.

Protocol: Various invention compounds were assayed in vitro using either cell line P815 or MI-S as model systems to test their photosensitizing activity. In the standard protocol, various concentrations of test compounds were added to washed suspensions of cells from cultures of the target cells and the mixtures were then irradiated using 700-820 nm light for 30 minutes. The results were assayed by determining cytotoxicity using direct counting using eosin-Y exclusion, a standard procedure for differentiating living from dead cells.
In other determinations conducted as above, the cells recovered from light exposure were assayed for viability by incubating them for 18 hours in 10 mCi/ml tritium-labeled thymidine according to the standard procedure whereby thymidine incorporation is equated with viability. The cells were harvested and radioactivity uptake was measured by a scintillation counter.

As to `CCc1c(C)c2cc3nc(cc4[nH]c(cc5nc(cc1[nH]2)C1(C)C5=CCC2C(=O)N(c5ccccc5)C(=O)C21)c(C)c4CC)C1(C)C3=CCC2C(=O)N(c3ccccc3)C(=O)C21` (stereo not shown) [Compound 12], the LD50 was 100 ng.

For the origin of these results see US5308608A, “Photosensitizing Diels-Alder porphyrin derivatives” (University of British Columbia, priority 1992, dated 1994).
